Experimental data reported in US20230293405A1, “Compositions Comprising UV-Filters and One or More (Bio)-Alkanediols” (Symrise AG, priority 2020, published 2023).

What was measured:
[1] = Solubility of alkanediols in water (visual observation); conditions: assessed at ambient temperature after 24 h storage at 5° C.
[2] = Sensory properties of oil component blended with alkanediol, assessed by untrained panelists on the backside of the hand; type: in vivo; conditions: scale 1 (low) to 5 (high absorption)
Source text: For evaluating the sensory behavior, oil components specified in the following Table 13 were blended with 1,2-heptanediol or 2,3-heptanediol or a mixture of 1,2-heptanediol and 2,3-heptanediol or 1,2-octanediol or 2,3-octanediol or a mixture of 1,2-octanediol and 2,3-octanediol (formulation) and assessed by untrained panelists in comparison to the oil component without addition of the specified alkanediols (placebo).
Test procedure: • Hands were pre-washed with liquid soap by following a defined procedure; • 30 μl of corresponding sample was applied on the backside of each hand (randomized); • After 30 s the spreading behavior of the respective formulation on skin was evaluated versus the respective oil component without 1,2-heptanediol on a scale from 1 to 5 (1=low spreading; 5=high spreading); • The samples were distributed with the fingertips of middle and forefinger with 2×5 cycles; • After 2 minutes, the fatty/greasy skin feeling was evaluated on a scale from 1 to 5 (1=low fatty/greasy skin feeling; 5=high fatty/greasy skin feeling); • Furthermore, the applicants were asked to assess the absorption, i.e. the impression of amount of remaining residue on the skin on a scale from 1 to 5 (1=low absorption; 5=high absorption).

[3] = in Helianthus Annuus (Sunflower) Seed Oil
[4] = in Caprylic Capric Triglyceride (neutral oil)

Row | Maximum solubility in water (% by weight) [1] | Absorption/remaining residue with ([2]; in Argan Oil) | Absorption/remaining residue with ([2]; in Avocado Oil) | Absorption/remaining residue with ([2]; in Cacao butter) | Absorption/remaining residue with ([2]; in Coconut Oil) | Absorption/remaining residue with ([2]; in Grapeseed Oil) | Absorption/remaining residue with [2, 3] | Absorption/remaining residue with ([2]; in Olive Oil) | Absorption/remaining residue with ([2]; in Castor Oil) | SMILES | also measured
1 | 0.3 % by weight |  |  |  |  |  |  |  |  | CCCCCCC(O)C(C)O (stereo not shown) [2,3-nonanediol] | 
2 |  | 2.6 | 2.6 | 3 | 3 | 1.6 | 2 | 2.6 |  | CCCCCCC(O)CO (stereo not shown) [1,2-octanediol] | 
3 | 0.1 % by weight |  |  |  |  |  |  |  |  | CCCCCCCC(O)CO (stereo not shown) [1,2-nonanediol] | 
4 | 1.5 % by weight | 2.2 | 2.4 | 2.8 | 2.6 | 2.4 | 3.4 | 2.6 | 3 | CCCCCC(O)C(C)O (stereo not shown) [2,3-octanediol] | 
5 | 3.6 % by weight | 2.4 | 2.4 | 3.2 | 2.4 | 2.2 | 2.6 | 2 | 3.8 | CCCCC(O)C(C)O (stereo not shown) [2,3-heptanediol] | Absorption/remaining residue with [2, 4]: 3
6 | 0.5 % by weight |  |  |  |  |  |  |  |  | CCCCCCC(O)CO (stereo not shown) [Hydrolite ® 8, Caprylyl Glycol] | 
7 | 2.5 % by weight | 2.8 | 2.6 | 3.6 | 2 | 2.8 | 2 | 2.4 | 4 | CCCCCC(O)CO (stereo not shown) [1,2-heptanediol] | Absorption/remaining residue with ([2]; in Butyrospermum Parkii (Shea) Butter): 2.7; Absorption/remaining residue with [2, 4]: 2.7; Absorption/remaining residue with ([2]; in Cetearyl Nonanoate (SymMollient S)): 2; Absorption/remaining residue with ([2]; in Chlorella oil (biotech)): 3; Absorption/remaining residue with ([2]; in Ethylhexyl Methoxycinnamate (Neo Heliopan AV)): 3; Absorption/remaining residue with ([2]; in Ethylhexyl Salicylate (Neo Heliopan OS)): 2.2; Absorption/remaining residue with ([2]; in Hexyldecanol (Eutanol G)): 2.7; Absorption/remaining residue with ([2]; in Homosalate (Neo Heliopan HMS)): 2.5; Absorption/remaining residue with ([2]; in Isoamyl p-Methoxycinnamate (Neo Heliopan E 1000)): 2.5; Absorption/remaining residue with ([2]; in Microalgae oil): 2.5; Absorption/remaining residue with ([2]; in Octocrylene (Neo Heliopan 303)): 2.7; Absorption/remaining residue with ([2]; in Propanediol Dicaprylate/Dicaprate (Symollient PDCC)): 2.4; Absorption/remaining residue with ([2]; in Prunus Amygdalus Dulcis (Sweet Almond) Oil): 2.2; Absorption/remaining residue with ([2]; in Simmondsia Chinensis (Jojoba) Seed Oil): 2.5
